Source: patent publication US20070259926A1, “mGluR5 modulators III” (AstraZeneca AB, priority 2006, published 2007)

Experiments:
[1] = Determination of brain to plasma ratio in rat; format: in vivo; conditions: brain and plasma, female Sprague Dawley rats, read-out: Brain/Plasma Ratio of compound in Rat
Method: Brain to plasma ratios are estimated in female Sprague Dawley rats. The compound is dissolved in water or another appropriate vehicle. For determination of brain to plasma ratio the compound is administrated as a subcutaneous, or an intravenous bolus injection, or an intravenous infusion, or an oral administration. At a predetermined time point after the administration a blood sample is taken with cardiac puncture. The rat is terminated by cutting the heart open, and the brain is immediately retained. The blood samples are collected in heparinized tubes and centrifuged within 30 minutes, in order to separate the plasma from the blood cells. The plasma is transferred to 96-well plates and stored at −20° C. until analysis. The brains are divided in half, and each half is placed in a pre-tarred tube and stored at −20° C. until analysis. Prior to the analysis, the brain samples are thawed and 3 ml/g brain tissue of distilled water is added to the tubes. The brain samples are sonicated in an ice bath until the samples are homogenized. Both brain and plasma samples are precipitated with acetonitrile. After centrifugation, the supernatant is diluted with 0.2% formic acid. […] After reconstitution of the residuals the samples are ready for injection onto the HPLC column.

human mGluR5d = target: T1, human mGluR5d (Homo sapiens, UniProt P41594); test: FLIPR assay: functional assessment of mGluR5 antagonism (intracellular calcium mobilization); format: cell-based; conditions: cells expressing human mGluR5d; read-out: FLIPR hmGluR5d
T1 construct: expressed in transfected cells
Source text: The properties of the compounds of the invention can be analyzed using standard assays for pharmacological activity. Examples of glutamate receptor assays are well known in the art as described in for example Aramori et al., Neuron 8:757 (1992), Tanabe et al., Neuron 8:169 (1992), Miller et al., J. Neuroscience 15:6103 (1995), Balazs, et al., J. Neurochemistry 69:151 (1997). The methodology described in these publications is incorporated herein by reference. Conveniently, the compounds of the invention can be studied by means of an assay (FLIPR) that measures the mobilization of intracellular calcium, [Ca^2+]i in cells expressing mGluR5 or another assay (IP3) that measures inositol phosphate turnover.
Cells expressing human mGluR5d as described in WO97/05252 are seeded at a density of 100,000 cells per well on collagen coated clear bottom 96-well plates with black sides and experiments are done 24 h following seeding. […] The fluorescence signal is sampled 50 times at 1 second intervals followed by 3 samples at 5 second intervals immediately after each of the two additions. Responses are measured as the difference between the peak height of the response to agonist, less the background fluorescence within the sample period. […]

T1 sequence (P41594 21-942 isoform P41594-3 limits assumed): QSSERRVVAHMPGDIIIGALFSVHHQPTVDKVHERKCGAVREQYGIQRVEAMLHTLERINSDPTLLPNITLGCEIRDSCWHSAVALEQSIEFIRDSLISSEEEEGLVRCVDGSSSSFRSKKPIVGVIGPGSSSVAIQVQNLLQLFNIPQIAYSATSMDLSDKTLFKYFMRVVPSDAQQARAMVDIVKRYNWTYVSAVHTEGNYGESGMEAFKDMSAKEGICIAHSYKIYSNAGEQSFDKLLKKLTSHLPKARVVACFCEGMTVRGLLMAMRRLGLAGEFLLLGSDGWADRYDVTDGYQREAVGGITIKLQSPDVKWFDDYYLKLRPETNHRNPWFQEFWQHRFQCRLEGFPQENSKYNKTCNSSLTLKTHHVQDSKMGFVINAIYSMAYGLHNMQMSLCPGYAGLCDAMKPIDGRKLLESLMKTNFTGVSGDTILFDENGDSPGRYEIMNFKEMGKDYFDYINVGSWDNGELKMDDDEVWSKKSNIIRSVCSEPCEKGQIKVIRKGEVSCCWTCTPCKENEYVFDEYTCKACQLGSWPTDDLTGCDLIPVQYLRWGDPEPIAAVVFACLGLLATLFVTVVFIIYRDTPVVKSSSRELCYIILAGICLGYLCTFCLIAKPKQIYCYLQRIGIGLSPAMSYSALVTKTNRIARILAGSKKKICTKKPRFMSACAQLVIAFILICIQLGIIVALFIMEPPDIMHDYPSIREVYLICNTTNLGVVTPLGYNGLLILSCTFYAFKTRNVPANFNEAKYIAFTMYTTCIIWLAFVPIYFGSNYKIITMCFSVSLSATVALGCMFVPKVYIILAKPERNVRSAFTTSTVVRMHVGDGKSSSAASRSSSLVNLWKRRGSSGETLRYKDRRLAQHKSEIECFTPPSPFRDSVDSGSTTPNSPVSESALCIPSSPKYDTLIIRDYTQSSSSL

Question: For `Cc1cc(-c2nnc(N3CCC[C@@H]3c3nnn(-c4cccc(Cl)c4)n3)n2C)ccn1` [Example 15.1, 4-(5-{(R)-2-[2-(3-Chloro-phenyl)-2H-tetrazol-5-yl]-pyrrolidin-1-yl}-4-methyl-4H-[1,2,4]triazol-3-yl)-2-methyl-pyridine], which Kp [1] is on record?
Answer: The Kp was 0.27.

Question: And the IC50 (human mGluR5d)?
Answer: Its IC50 is 11 nM.

Question: For `COc1cc(-c2nnc(N3CCC[C@@H]3c3nnn(-c4cccc(C#N)c4)n3)n2C)ccn1` [Example 15.3, 3-(5-{(R)-1-[5-(2-Methoxy-pyridin-4-yl)-4-methyl-4H-[1,2,4]triazol-3-yl]-pyrrolidin-2-yl}-tetrazol-2-yl)-benzonitrile], which Kp [1] is on record?
Answer: Its Kp is 0.13.

Question: And the IC50 (human mGluR5d)?
Answer: Its IC50 is 50 nM.
